Results as given in PubChem BioAssay AID256 (DTP/NCI, 2004).
Inconclusive results and toxic doses are left out.

Tested on: CD2F1 mice, L1210 leukemia ip, survival T/C
Assay: NCI In Vivo Anticancer Drug Screen. Data for tumor model L1210 Leukemia (intraperitoneal) in CD2F1 (CDF1) mice
Details: endpoint: mean survival time, higher = longer survival
Method in brief: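 Read-out first: treated-group measurement over vehicle-control measurement, expressed as a ratio. Animals bore a transplanted tumor line and were dosed with compound or vehicle.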

[1] = dose: 100.0 mg/kg/injection, schedule: Q04DX003 (ip), vehicle: saline with Tween-80
[2] = dose: 200.0 mg/kg/injection, schedule: Q04DX003 (ip), vehicle: saline with Tween-80
[3] = dose: 400.0 mg/kg/injection, schedule: Q04DX003 (ip), vehicle: saline with Tween-80

COc1ccc(C(=O)N/N=C(\C)[C@]2(O)Cc3c(O)c4c(c(O)c3[C@@H](OC3CC(N)C(O)C(C)O3)C2)C(=O)c2c(OC)cccc2C4=O)cc1 (stereo partly specified)
T/C (dose: 0.5 mg/kg/injection, schedule: Q01DX009 (ip), vehicle: water): 103 % of control | T/C (dose: 1.0 mg/kg/injection, schedule: Q01DX009 (ip), vehicle: water): 112 % of control | T/C (dose: 2.0 mg/kg/injection, schedule: Q01DX009 (ip), vehicle: water): 118 % of control | T/C (dose: 4.0 mg/kg/injection, schedule: Q01DX009 (ip), vehicle: water): 121 % of control

O=[N+]([O-])c1ccc(-c2cn3ccsc3n2)cc1
T/C (dose: 100.0 mg/kg/injection, schedule: Q01DX001 (ip), vehicle: Klucel (hydroxypropylcellulose) (HPC)): 87 % of control | T/C (dose: 200.0 mg/kg/injection, schedule: Q01DX001 (ip), vehicle: Klucel (hydroxypropylcellulose) (HPC)): 90 % of control | T/C (dose: 400.0 mg/kg/injection, schedule: Q01DX001 (ip), vehicle: Klucel (hydroxypropylcellulose) (HPC)): 90 % of control

COc1cc(NC(C)=O)c2ncccc2c1Br
T/C [1]: 104 % of control | T/C [2]: 97 % of control | T/C [3]: 92 % of control

O=C(OCCCCI)c1ccccc1
T/C (dose: 75.0 mg/kg/injection, schedule: Q01DX001 (ip), vehicle: saline): 97 % of control | T/C (dose: 150.0 mg/kg/injection, schedule: Q01DX001 (ip), vehicle: saline): 102 % of control | T/C (dose: 300.0 mg/kg/injection, schedule: Q01DX001 (ip), vehicle: saline): 97 % of control

O=[N+]([O-])c1ccc(N/N=C(\CBr)c2ccccc2)c([N+](=O)[O-])c1
T/C (dose: 100.0 mg/kg/injection, schedule: Q01DX001 (ip), vehicle: saline with Tween-80): 101 % of control | T/C (dose: 200.0 mg/kg/injection, schedule: Q01DX001 (ip), vehicle: saline with Tween-80): 92 % of control | T/C (dose: 400.0 mg/kg/injection, schedule: Q01DX001 (ip), vehicle: saline with Tween-80): 93 % of control

CN(C)N=Nc1ccccc1[N+](=O)[O-]
T/C (dose: 53.0 mg/kg/injection, schedule: Q01DX001 (ip), vehicle: saline): 105 % of control | T/C (dose: 53.0 mg/kg/injection, schedule: Q01DX009 (ip), vehicle: saline): 104 % of control | T/C (dose: 79.0 mg/kg/injection, schedule: Q01DX001 (ip), vehicle: saline): 105 % of control | T/C (dose: 79.0 mg/kg/injection, schedule: Q01DX009 (ip), vehicle: saline): 109 % of control | T/C (dose: 119.0 mg/kg/injection, schedule: Q01DX001 (ip), vehicle: saline): 108 % of control | T/C (dose: 119.0 mg/kg/injection, schedule: Q01DX009 (ip), vehicle: saline): 118 % of control | T/C (dose: 178.0 mg/kg/injection, schedule: Q01DX001 (ip), vehicle: saline): 115 % of control | T/C (dose: 600.0 mg/kg/injection, schedule: Q01DX001 (ip), vehicle: saline): 118 % of control

CCOC(=O)NC(=O)O
T/C (dose: 100.0 mg/kg/injection, schedule: Q01DX001 (ip), vehicle: saline): 114 % of control | T/C (dose: 200.0 mg/kg/injection, schedule: Q01DX001 (ip), vehicle: saline): 103 % of control | T/C (dose: 400.0 mg/kg/injection, schedule: Q01DX001 (ip), vehicle: saline): 97 % of control

CN(C)CCCC1c2ccccc2Oc2ccc(C(F)(F)F)cc21 (stereo unspecified)
T/C (dose: 1.56 mg/kg/injection, schedule: Q01DX009 (ip), vehicle: saline): 96 % of control | T/C (dose: 3.12 mg/kg/injection, schedule: Q01DX009 (ip), vehicle: saline): 100 % of control | T/C (dose: 6.25 mg/kg/injection, schedule: Q01DX009 (ip), vehicle: saline): 94 % of control | T/C (dose: 12.5 mg/kg/injection, schedule: Q01DX009 (ip), vehicle: saline): 100 % of control | T/C (dose: 25.0 mg/kg/injection, schedule: Q01DX009 (ip), vehicle: saline): 103 % of control

[O-][n+]1ccnc2c1cnn2C1OC(CO)C(O)C1O (stereo unspecified)
T/C (dose: 12.5 mg/kg/injection, schedule: Q04DX003 (ip), vehicle: water): 104 % of control | T/C (dose: 25.0 mg/kg/injection, schedule: Q04DX003 (ip), vehicle: water): 104 % of control | T/C (dose: 50.0 mg/kg/injection, schedule: Q04DX003 (ip), vehicle: water): 101 % of control | T/C (dose: 100.0 mg/kg/injection, schedule: Q04DX003 (ip), vehicle: water): 101 % of control | T/C (dose: 200.0 mg/kg/injection, schedule: Q04DX003 (ip), vehicle: water): 101 % of control

O=P(O)(O)OCC(O)CO.[NH-]C1CCCCC1[NH-].[Pt+2] (stereo unspecified)
T/C (dose: 1.17 mg/kg/injection, schedule: Q04DX003 (ip), vehicle: other): 115 % of control | T/C (dose: 9.38 mg/kg/injection, schedule: Q04DX003 (ip), vehicle: other): 231 % of control | T/C (dose: 18.75 mg/kg/injection, schedule: Q04DX003 (ip), vehicle: other): 186 % of control | T/C (dose: 37.5 mg/kg/injection, schedule: Q04DX003 (ip), vehicle: other): 104 % of control

O=NN(c1ccccc1)c1ccc([N+](=O)[O-])cc1
T/C (dose: 100.0 mg/kg/injection, schedule: Q01DX009 (ip), vehicle: saline with Tween-80): 95 % of control | T/C [1]: 92 % of control | T/C (dose: 200.0 mg/kg/injection, schedule: Q01DX009 (ip), vehicle: saline with Tween-80): 90 % of control | T/C [2]: 97 % of control | T/C [3]: 98 % of control
